One compound from EP3833345B1, “SMALL MOLECULE-INHIBITORS OF 6-PHOSPHOFRUCTO-1-KINASE FOR REDUCING LACTATE GENERATION BY CANCER CELLS” (Kemijski Institut, priority 2018, dated 2020) can be followed below.

For one data set, the system named is COLO 829 cells. Nature of the data set: lactate excretion by COLO 829 cells. The format is cell-based. The note with it: inhibitor added 8 hours after inoculation, then at 24-hour intervals; low concentrations (from 10 µM).
In data set [1] the test system is Jurkat cells. Nature of the data set: NADH levels in Jurkat cells (NADH/NAD fluorometric assay kit). The format is cell-based, human. The note with it: 24 hours after addition, different concentrations. The method, then:
By inhibiting modified PFK-M enzyme in the cancer cells, glycolytic flux should be decreased and concomitantly NADH levels reduced. To verify that, the amounts of reduced pyridine nucleotide was measured by NADH/NAD fluorometric assay kit (Abcam). The Jurkat cells were seeded into the wells of 96 wells plate at 5×10^5 cells per mL. The untreated cells (control) and the cells with specified amounts of added Inhibitors No. 3 and No. 9 were incubated for 24 hours.

Data set [2] relates to Jurkat cells. Nature of the data set: long-term fed-batch cultivation of Jurkat cells (18 days). The note with it: 100 µM.
The target of data set [3] is T1, modified (47 kDa) 6-phosphofructo-1-kinase (PFK-M), sfPFK-M fragments (Homo sapiens, UniProt P08237).
T1 sequence (P08237 1-443 limits assumed): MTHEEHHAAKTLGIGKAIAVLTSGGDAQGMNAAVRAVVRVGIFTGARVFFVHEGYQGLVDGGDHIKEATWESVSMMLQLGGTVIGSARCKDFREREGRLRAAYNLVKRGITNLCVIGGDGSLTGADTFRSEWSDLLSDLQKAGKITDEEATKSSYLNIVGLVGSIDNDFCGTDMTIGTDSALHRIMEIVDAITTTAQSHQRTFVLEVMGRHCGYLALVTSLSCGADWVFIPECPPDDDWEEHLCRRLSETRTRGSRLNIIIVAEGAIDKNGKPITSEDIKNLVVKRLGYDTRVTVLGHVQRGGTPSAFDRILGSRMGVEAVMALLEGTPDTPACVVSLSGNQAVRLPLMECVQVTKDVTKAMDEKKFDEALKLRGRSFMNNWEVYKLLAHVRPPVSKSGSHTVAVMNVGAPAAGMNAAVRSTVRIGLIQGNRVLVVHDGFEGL
Nature of the data set: in vitro inhibition of purified recombinant modified (cancer-specific) PFK-M fragments.

Data set [4] relates to human embryonic kidney (HEK 293) cells. Description: lactate excretion by non-tumorigenic HEK 293 cells. The format is cell-based. The method, then: The effect of Inhibitor No. 3 on lactate excretion was tested also on two non-tumorigenic cell lines. First, fast proliferating human embryonic kidney (HEK 293) cells were assessed for lactate formation in the presence of Inhibitor No. 3. RPMI 1640 GlutaMAX medium (Thermo Fisher) supplemented with 10% FBS was used as a growth medium. […] About 95 mg/L of lactate were detected after 72 hours of incubation by untreated cells (control) and by the cells growing in the presence of Inhibitor No. 3 (Figure 9a). Similar results were recorded also by non-tumorigenic MCF-10A cell line isolated form the epithelial cells of the mammary gland. The cells were cultivated in MEBM medium supplemented by additives that were obtained as a MEGM Kit from Lonza/Clonetics Corporation. Characteristically these cells grew slower than HEK 293 cells with correspondingly slower lactate excretion rate. After 96 hours of incubation, only about 27 mg/L of lactate was detected in the medium. Again, no influence of different concentrations of Inhibitor No. 3 on lactate generation could be observed (Figure 9b).

The test system of a further data set is Caco-2 cells. Description: cytotoxicity in Caco-2 cells (lactate dehydrogenase (LDH) kit). The format is cell-based. The method, then: (§1) Lactate generation, growth yield and survival under normal and inhibitory conditions of three different tumorigenic cells lines were determined in more detailed measurements. […] Cytotoxicity was measured by the Lactate dehydrogenase (LDH) kit (Roche).

The next data set relates to MDA-MB-231 cells. Description: cytotoxicity in MDA-MB-231 cells (LDH kit). The format is cell-based. The method, then:
as §1
Inhibitors No. 23, 29, 30 and 31 were tested for preventing lactate generation by the MDA-MB-231 cells.

[5] abbreviates: sequential addition at 24-hour intervals, 92 hours, average over medium without and with inhibitor.
The mark [6] stands for this setting: single addition, average over control and different concentrations of inhibitor.

The structures appear in SMILES notation.

Consider `O=C(CSc1nnc(-c2ccc3c(c2)OCO3)o1)Nc1ccon1` [Inhibitor No. 3, 2-[(5-benzo[1,3]dioxol-5-yl-1,3,4-oxadiazol-2-yl)sulfanyl]-N-isoxazol-3-yl-acetamide], for which, in the data set with COLO 829 cells, the “lactate formation in COLO 829 cells, sequential re-insertion” value is “strong reduction of lactate formation”. In the data set on Jurkat cells [1], the NADH levels entry is listed as “steadily decreased in dose dependent manner”. Besides, the “viability of the Jurkat cells, long-term” value in the data set with Jurkat cells [2] (fed-batch, 18 days) was “slight decrease of viability”. Further, in the data set with Jurkat cells [2] (long term experiment), the “duration of slow reduction of lactate generation rate after the addition of inhibitor” value lay in the range of 24 to 48 h. Further, in data set [3], the half-inhibitory concentration (IC50) (as a rule, the concentration that gives 50% inhibition) was around 15 µM. For the same compound, in data set [4] (72 hours of growth, different concentrations of inhibitor), the “reduction of lactate generation, HEK 293” value is listed as “no significant reduction of lactate generation”. The “lactate detected, HEK 293” value in data set [4] (after 72 hours of incubation, same for untreated control) is “About 95 mg/L”. In the data set with Caco-2 cells (setting [5]), the “average percentages of dead cells, Caco-2, sequential re-insertion” value is given as 5,38±0,4%. For the same compound, in the data set with Caco-2 cells (setting [6]), the “average percent of dead cells, Caco-2” value is recorded as 3,99±0,08%. Besides, the “average percentages of dead cells, MDA-MB-231, sequential re-insertion” value with MDA-MB-231 cells (setting [5]) is on record as 2,05±0,18%. The “average percent of dead MDA-MB-231 cells” value with MDA-MB-231 cells (setting [6]) was 7,2±0,47%.
